What was measured:
DC1 cells = assay: MSC co-culture with LPS-activated DC1 cells, TNF-α secretion; format: cell-based, human; conditions: MSCs cultured with activated DC1 in presence of PGE2 inhibitor
Text: Peripheral blood mononuclear cells (PBMCs) were obtained from Poietics Technologies, Div of Cambrex Biosciences (Walkersville, Md.). Precursors of dendritic cells (DCs) of monocytic lineage (CD1c^+) were positively selected from PBMCs using a 2-step magnetic separation method according to Dzionek, et al., J. Immunol., Vol. 165, pg. 6037 (2000). Briefly, CD1c expressing B cells were magnetically depleted of CD19^+ cells using magnetic beads, followed by labeling the B-cell depleted fraction with biotin-labeled CD1c (BDCA1^+) and anti-biotin antibodies and separating them from the unlabeled cell fraction utilizing magnetic columns according to the manufacturer's instructions (Miltenyi Biotech, Auburn, Calif.). Precursors of DCs of plasmacytoid lineage were isolated from PBMCs by immuno-magnetic sorting of positively labeled antibody coated cells (BDCA2^+) (Miltenyi Biotech, Auburn, Calif.).
In most experiments, human MSCs and DCs were cultured in equal numbers for various time periods and cell culture supernatant collected and stored at −80° C. until further evaluation. […] The non-adherent cell fraction (purified T cells) was then collected from the cultures, washed twice and re-stimulated with PHA for another 24 hours, following which cell culture supernatants were harvested and analyzed for secreted IFN-γ and IL-4 by ELISA. […]

CD4+ Th cells = assay: Generation of TH1/TH2 cells in presence or absence of MSCs, IFN-γ and IL-4 by ELISA; format: cell-based, human; conditions: MSCs cultured with TH1 cells in presence of PGE2 inhibitor
Procedure: Peripheral blood mononuclear cells (PBMCs) were plated at 2×10^6 cells/ml for 45 min. at 37°C. in order to remove monocytes. Non-adherent fraction was incubated in the presence of plate-bound anti-CD3 ([…]) and anti-CD28 (1 μg/ml) antibodies under TH1 (IL-2 (4 ng/ml)+IL-12 (5 ng/ml)+anti-IL-4 (1 μg/ml)) or TH2 (IL-2 (4 ng/ml)+Il-4 (4 ng/ml)+anti-IFN-γ (1 μg/ml)) conditions for 3 days in the presence or absence of MSCs. The cells were washed and then re-stimulated with PHA (2.5 μg/ml) for another 24 or 48 hours, following which levels of IFN-γ and IL-4 were measured in culture supernatants by ELISA (R&D Systems, Minneapolis, Minn.).

MSCs = assay: Secreted factors (PGE2, IL-6, VEGF, pro-MMP-1) in culture supernatant of MSCs; format: cell-based; conditions: Homo sapiens, 24 hour culture, read-out: inhibition of PGE2 secretion by hMSCs
Procedure: Using previously characterized human MSCs, the levels of Interleukin-6 (IL-6), VEGF, lipid mediator prostaglandin E2 (PGE2), and matrix metalloproteinase 1 (pro-MMP-1) were analyzed in culture supernatant of MSCs cultured for 24 hours in the presence or absence of PBMCs (MSC to PBMC ratio 1:10).

Row | Compound | TNF-α secretion by DC1s (DC1 cells) | IFN-γ secretion from TH1 cells (CD4+ Th cells) | inhibition at 4 µM (MSCs; indomethacin 4 μM) | inhibition at 5 µM (MSCs; NS-398 5 μM)
1 | COc1ccc2c(c1)c(CC(=O)O)c(C)n2C(=O)c1ccc(Cl)cc1 [indomethacin] | increased TNF-α secretion | increased | 60 to 90% | –
2 | CS(=O)(=O)Nc1ccc([N+](=O)[O-])cc1OC1CCCCC1 [NS-398] | increased TNF-α secretion | increased | – | 60 to 90%
